Measurements reported in patent US20090111846A1, “PHARMACEUTICAL COMPOSITIONS COMPRISING DEXTROMETHORPHAN AND QUINIDINE FOR THE TREATMENT OF DEPRESSION, ANXIETY, AND NEURODEGENERATIVE DISORDERS” (Avanir Pharmaceuticals, priority 2006, published 2009).
Entries after “also recorded” stand apart in the source; their conditions may differ.

Tests used:
[1] = tested on: methotrexate (MTX) neurotoxicity; conditions: oral 1-2 mg/kg, N=5, all patients; cited from earlier work
[2] = cited from earlier work
[3] = tested on: glutamate-induced neurotoxicity in neocortical cell cultures, in vitro hypoxia and glucose deprivation models; conditions: cited from earlier work
[4] = tested on: perioperative brain injury; conditions: cited from earlier work
[5] = tested on: amyotrophic lateral sclerosis; conditions: cited from earlier work
[6] = Dextromethorphan with quinidine in healthy subjects (Pope et al.); assay type: in vivo, human; conditions: from 68-fold concentration in brain and plasma levels with quinidine
Description: The use of quinidine to inhibit the rapid first-pass metabolism of dextromethorphan allows the attainment of potential neuroprotective drug levels in the brain. […] This dose, 30 mg twice daily (BID) given with 60 mg BID dextromethorphan, increased plasma levels of dextromethorphan 25-fold. In this manner, coadministration of 30 mg of quinidine BID with dextromethorphan in the three unsuccessful amyotrophic lateral sclerosis neuroprotection trials could have readily transformed the inadequate dextromethorphan doses into standard neuroprotective plasma concentrations.
Given the 68-fold concentration of dextromethorphan in brain found in neurosurgery patients (Steinberg et al. J Neurosurg. 1996; 84:860-6), an estimated brain concentration of 13,100 ng/g (about 48 microM) is achievable. This corresponds to neuroprotective levels established in preclinical in vitro (Choi et al. J Pharmacol Exp Ther. 1987; 242:713-20) and in vivo (Steinberg et al. Neurol Res. 1993; 15:174-80) studies.
A reasonable concern is that the achievement of higher dextromethorphan plasma concentrations, as well as the use of quinidine, may be associated with an increased occurrence of adverse events, particularly in patients with neurological disorders. […] No difference was found between the extensive and poor metabolizer phenotypes. […]

[7] = cited from earlier work; remark: listed apart in the source
[8] = single oral dose 30 mg, extensive metabolizers (N=5); cited from earlier work
[9] = tested on: neocortical ischemic neuronal damage and edema; conditions: cited from earlier work
[10] = Huntington's disease, N=11; cited from earlier work
[11] = ALS, detectable in only 1 of 7 patients, 4.8 to 10 mg/kg/day, at 3 months; cited from earlier work
[12] = in vivo
Description: Dosages of other antioxidants will vary with the antioxidant, and are determined on an individual basis.

In the case of `COc1ccc2c(c1)[C@]13CCCCC1[C@H](C2)N(C)CC3` (single isomer, unassigned; (+)) [dextromethorphan, (+)-3-methoxy-N-methylmorphinan], the “neurological symptoms of MTX neurotoxicity” value [1] is listed as “completely resolved neurological symptoms; also recorded: completely resolved neurological deficits”, the AUC0-12 ([2]; 120 mg daily dextromethorphan (60 mg BID) with quinidine (30 mg BID), steady state) is listed as 1963 ± 609 ng·h/mL and the “steady state peak plasma levels” value ([2]; 120 mg daily dextromethorphan (60 mg BID) with quinidine (30 mg BID)) is listed as 192 ± 45 ng/mL. The “concentration giving almost complete protection” value [3] was 100 µM, the “levels in CSF” value ([4]; oral 36-38 mg/kg/day, children, cardiac surgery) was 285 to 939 ng/mL and the adverse events ([4]; oral 36-38 mg/kg/day) was “not observed”. The “postoperative EEG sharp waves” value ([4]; p=0.02, N=13) was “significantly decreased postoperative EEG sharp waves”, the “third ventricle postoperative enlargement, diameter” value ([4]; vs. 0.256 cm placebo, p=0.06) was 0.112 cm and the “rate of postoperative periventricular white matter lesions” value ([4]; vs. 2/7 placebo) was 0/6. For the same compound, the “clinical or neurophysiological parameter improvements” value ([5]; Askmark et al., N=14, 150 mg/day 12-week crossover, then 300 mg/day open) was “no clinical or neurophysiological parameter”, the “rate of disease progression vs placebo” value ([5]; Blin et al., N=49, 1.5 mg/kg/day, 1-year) was “no significant differences in rate of disease progression” and the 12-month survival ([5]; Gredal et al., N=45, 150 mg/day) was “did not demonstrate an improvement in 12-month survival”. For the same compound, the “estimated brain concentration achievable” value [6] was 13,100 ng/g and about 48 microM, the adverse reactions ([7]; even at the highest levels, symptoms tolerable and reversible) was “no patient suffered severe adverse reactions” and the “maximum level in serum” value ([7]; neurosurgery patients, maximum 9.64 mg/kg oral dose) was 1514 ng/mL. For the same compound, the “maximum level in brain” value ([7]; neurosurgery patients) was 92,700 ng/g, the dextromethorphan in plasma [8] was “not detectable or at the limits of detection” and the “neuroprotective plasma (serum) levels” value ([9]; animal models of cerebral ischemia) was at least 500 ng/mL. For the same compound, the neuroprotective brain levels ([9]; conversion of 10,000 ng/g) was “about 37 microM”, the “median peak tolerated dose” value [10] was 410 mg/day and the “steady-state plasma level (Cmax)” value [11] was 190 ng/mL.

In the case of `CNCCC(Oc1ccc(C(F)(F)F)cc1)c1ccccc1` (stereo not drawn) [fluoxetine], the “increase of dextromethorphan concentrations in the blood” value [12] is reported as “effective in increasing dextromethorphan concentrations in the blood of some people”.

In the case of `C=C[C@H]1C[N@]2CC[C@@H]1C[C@@H]2[C@@H](O)c1ccnc2ccc(OC)cc12` [quinidine], the “lowest dose needed to maximally suppress O-demethylation of dextromethorphan” value ([2]; human, in vivo) is listed as “about 30 mg” and the “increase of plasma levels of dextromethorphan” value ([2]; quinidine 30 mg BID given with 60 mg BID dextromethorphan) is listed as 25 fold.
